Measurements published in patent US10710978B2, “STK4 inhibitors for treatment of hematologic malignancies” (Dana-Farber Cancer Institute, Inc., priority 2015, dated 2020).
Read-outs that look alike come from different tables or passages of the source.

Key:
Assay in all cases: KiNativ assay
Type in all cases: binding
MELK = MELK (Homo sapiens (Human), UniProt Q14680); conditions: H929 live cell
Method in brief: (§1)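 Compounds were tested in duplicate at 10 μM in live H929 cells, and kinase engagement was profiled by KiNativ with mass spectrometry read-out to derive IC50.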

GAK = GAK (Homo sapiens (Human), UniProt O14976); conditions: H929 live cell
Method in brief: as §1

MER, TYRO3 = conditions: H929 live cell; for % inhibition: 10 μM, range class
Method in brief: as §1

GPRK6 = GPRK6 (Homo sapiens (Human), UniProt P43250); conditions: H929 live cell
GPRK6, sequence (P43250 whole entry): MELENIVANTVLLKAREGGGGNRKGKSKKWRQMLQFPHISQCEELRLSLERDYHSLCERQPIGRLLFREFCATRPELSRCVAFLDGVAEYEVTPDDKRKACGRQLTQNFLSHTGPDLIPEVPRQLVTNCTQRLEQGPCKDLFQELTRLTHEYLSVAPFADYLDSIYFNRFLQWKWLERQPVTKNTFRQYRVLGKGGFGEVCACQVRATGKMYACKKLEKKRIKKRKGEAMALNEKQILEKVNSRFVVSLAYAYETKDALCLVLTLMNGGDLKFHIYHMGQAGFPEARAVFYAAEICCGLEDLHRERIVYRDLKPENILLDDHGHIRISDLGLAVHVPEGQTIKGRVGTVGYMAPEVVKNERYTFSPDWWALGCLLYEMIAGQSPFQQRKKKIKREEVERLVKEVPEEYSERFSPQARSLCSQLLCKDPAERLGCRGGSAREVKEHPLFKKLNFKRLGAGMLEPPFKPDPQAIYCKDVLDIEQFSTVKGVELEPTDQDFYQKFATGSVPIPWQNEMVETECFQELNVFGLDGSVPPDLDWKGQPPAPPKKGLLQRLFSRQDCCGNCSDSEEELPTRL
Method in brief: as §1

DNAPK = DNAPK (Homo sapiens (Human), UniProt P78527); conditions: H929 live cell, range class, read-out: % inhibition
Experimental: Biochemical IC50s of the compounds of the present disclosure against various kinases were measured in a KiNativ assay. Compounds were screened in duplicate at 10 μM in H929 live cell. IC50 was measured via Mass spectroscopy (MS).

PCTAIRE1, PCTAIRE3 = conditions: H929 live cell; for % inhibition: 10 μM, range class
Method in brief: (§2)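 Screening used intact H929 cells treated with each compound at 10 μM in duplicate; KiNativ labelling followed, and MS quantitation yielded IC50.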

PCTAIRE2, PCTAIRE3 = conditions: H929 live cell; for % inhibition: 10 μM, range class
Method in brief: as §2

PIP4K2B = PIP4K2B (Homo sapiens (Human), UniProt P78356); conditions: H929 live cell
PIP4K2B, sequence (P78356 whole entry): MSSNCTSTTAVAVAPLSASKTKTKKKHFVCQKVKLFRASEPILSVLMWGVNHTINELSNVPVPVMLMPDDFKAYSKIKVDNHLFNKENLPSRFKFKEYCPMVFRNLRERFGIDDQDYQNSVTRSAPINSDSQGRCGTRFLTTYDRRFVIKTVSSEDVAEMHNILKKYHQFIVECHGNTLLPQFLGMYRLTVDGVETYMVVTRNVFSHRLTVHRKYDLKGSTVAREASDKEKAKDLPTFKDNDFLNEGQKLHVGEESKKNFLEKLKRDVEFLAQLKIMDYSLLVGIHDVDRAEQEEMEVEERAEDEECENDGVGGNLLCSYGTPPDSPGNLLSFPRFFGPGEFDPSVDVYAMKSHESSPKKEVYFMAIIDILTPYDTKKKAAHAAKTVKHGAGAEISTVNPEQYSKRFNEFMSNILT
Method in brief: as §2

ZC3/MINK = ZC3/MINK (Homo sapiens (Human), UniProt Q8N4C8); conditions: H929 live cell
ZC3/MINK, sequence (Q8N4C8 whole entry): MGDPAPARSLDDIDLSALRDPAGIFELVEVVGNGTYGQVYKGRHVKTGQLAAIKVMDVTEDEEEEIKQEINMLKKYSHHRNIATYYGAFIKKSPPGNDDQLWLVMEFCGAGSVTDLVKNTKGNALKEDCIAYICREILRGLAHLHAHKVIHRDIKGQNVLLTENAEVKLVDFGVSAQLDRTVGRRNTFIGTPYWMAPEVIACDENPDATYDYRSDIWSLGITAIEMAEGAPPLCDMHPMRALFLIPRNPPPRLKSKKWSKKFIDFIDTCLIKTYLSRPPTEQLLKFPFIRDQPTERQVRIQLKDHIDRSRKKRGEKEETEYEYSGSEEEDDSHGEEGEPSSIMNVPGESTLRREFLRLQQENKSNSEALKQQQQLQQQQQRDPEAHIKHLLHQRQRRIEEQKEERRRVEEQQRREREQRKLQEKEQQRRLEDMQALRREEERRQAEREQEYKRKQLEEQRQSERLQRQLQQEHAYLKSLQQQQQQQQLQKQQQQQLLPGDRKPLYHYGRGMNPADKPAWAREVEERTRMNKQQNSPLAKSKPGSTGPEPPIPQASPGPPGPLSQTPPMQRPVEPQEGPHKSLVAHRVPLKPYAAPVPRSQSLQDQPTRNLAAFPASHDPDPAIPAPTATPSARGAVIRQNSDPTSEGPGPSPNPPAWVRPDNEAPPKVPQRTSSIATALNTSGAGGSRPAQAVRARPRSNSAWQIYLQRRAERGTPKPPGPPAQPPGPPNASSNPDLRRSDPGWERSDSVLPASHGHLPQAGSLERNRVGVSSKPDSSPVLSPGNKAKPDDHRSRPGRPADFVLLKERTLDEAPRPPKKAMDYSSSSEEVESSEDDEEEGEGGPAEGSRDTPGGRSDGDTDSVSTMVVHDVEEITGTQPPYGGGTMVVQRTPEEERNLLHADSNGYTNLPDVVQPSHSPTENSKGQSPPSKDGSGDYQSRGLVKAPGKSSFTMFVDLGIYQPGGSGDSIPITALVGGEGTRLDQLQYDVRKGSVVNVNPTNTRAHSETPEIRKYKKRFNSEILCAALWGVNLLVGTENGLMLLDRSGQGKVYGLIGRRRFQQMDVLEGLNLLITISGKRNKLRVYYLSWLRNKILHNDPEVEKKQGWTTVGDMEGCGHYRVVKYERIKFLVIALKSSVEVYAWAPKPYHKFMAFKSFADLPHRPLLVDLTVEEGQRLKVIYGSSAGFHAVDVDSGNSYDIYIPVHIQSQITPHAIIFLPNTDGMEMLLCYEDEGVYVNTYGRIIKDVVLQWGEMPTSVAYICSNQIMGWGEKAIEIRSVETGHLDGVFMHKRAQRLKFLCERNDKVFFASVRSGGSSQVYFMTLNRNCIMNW
Method in brief: as §2

Erk5 = Erk5 (Homo sapiens (Human), UniProt Q13164); conditions: H929 live cell
Method in brief: as §1

MLK4 = MLK4 (Homo sapiens (Human), UniProt Q5TCX8); conditions: H929 live cell
Method in brief: as §1

CLK3 = CLK3 (Homo sapiens (Human), UniProt P49761); conditions: H929 live cell
Method in brief: as §1

[1] = system: ALK2, ALK4, ALK7, BMPR1B, TGFbR1; conditions: H929 live cell; for % inhibition: 10 μM, range class
Method in brief: as §2

CaMK4 = CaMK4 (Homo sapiens (Human), UniProt Q16566); conditions: H929 live cell
CaMK4, sequence (Q16566 whole entry): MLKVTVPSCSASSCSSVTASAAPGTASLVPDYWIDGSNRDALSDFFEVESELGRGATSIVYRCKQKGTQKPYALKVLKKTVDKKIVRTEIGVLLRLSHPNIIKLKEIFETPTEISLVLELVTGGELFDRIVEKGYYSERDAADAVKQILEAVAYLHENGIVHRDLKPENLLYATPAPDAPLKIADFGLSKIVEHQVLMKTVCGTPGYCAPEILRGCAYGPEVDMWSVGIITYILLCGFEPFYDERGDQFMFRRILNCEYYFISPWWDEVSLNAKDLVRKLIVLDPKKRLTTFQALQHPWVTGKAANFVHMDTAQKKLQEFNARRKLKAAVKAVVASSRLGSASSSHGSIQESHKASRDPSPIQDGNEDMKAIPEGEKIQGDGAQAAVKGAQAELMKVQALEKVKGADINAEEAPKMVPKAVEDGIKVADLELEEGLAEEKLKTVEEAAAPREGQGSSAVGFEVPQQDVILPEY
Method in brief: as §1

MAP3K6 = MAP3K6 (Homo sapiens (Human), UniProt O95382); conditions: H929 live cell
MAP3K6, sequence (O95382 whole entry): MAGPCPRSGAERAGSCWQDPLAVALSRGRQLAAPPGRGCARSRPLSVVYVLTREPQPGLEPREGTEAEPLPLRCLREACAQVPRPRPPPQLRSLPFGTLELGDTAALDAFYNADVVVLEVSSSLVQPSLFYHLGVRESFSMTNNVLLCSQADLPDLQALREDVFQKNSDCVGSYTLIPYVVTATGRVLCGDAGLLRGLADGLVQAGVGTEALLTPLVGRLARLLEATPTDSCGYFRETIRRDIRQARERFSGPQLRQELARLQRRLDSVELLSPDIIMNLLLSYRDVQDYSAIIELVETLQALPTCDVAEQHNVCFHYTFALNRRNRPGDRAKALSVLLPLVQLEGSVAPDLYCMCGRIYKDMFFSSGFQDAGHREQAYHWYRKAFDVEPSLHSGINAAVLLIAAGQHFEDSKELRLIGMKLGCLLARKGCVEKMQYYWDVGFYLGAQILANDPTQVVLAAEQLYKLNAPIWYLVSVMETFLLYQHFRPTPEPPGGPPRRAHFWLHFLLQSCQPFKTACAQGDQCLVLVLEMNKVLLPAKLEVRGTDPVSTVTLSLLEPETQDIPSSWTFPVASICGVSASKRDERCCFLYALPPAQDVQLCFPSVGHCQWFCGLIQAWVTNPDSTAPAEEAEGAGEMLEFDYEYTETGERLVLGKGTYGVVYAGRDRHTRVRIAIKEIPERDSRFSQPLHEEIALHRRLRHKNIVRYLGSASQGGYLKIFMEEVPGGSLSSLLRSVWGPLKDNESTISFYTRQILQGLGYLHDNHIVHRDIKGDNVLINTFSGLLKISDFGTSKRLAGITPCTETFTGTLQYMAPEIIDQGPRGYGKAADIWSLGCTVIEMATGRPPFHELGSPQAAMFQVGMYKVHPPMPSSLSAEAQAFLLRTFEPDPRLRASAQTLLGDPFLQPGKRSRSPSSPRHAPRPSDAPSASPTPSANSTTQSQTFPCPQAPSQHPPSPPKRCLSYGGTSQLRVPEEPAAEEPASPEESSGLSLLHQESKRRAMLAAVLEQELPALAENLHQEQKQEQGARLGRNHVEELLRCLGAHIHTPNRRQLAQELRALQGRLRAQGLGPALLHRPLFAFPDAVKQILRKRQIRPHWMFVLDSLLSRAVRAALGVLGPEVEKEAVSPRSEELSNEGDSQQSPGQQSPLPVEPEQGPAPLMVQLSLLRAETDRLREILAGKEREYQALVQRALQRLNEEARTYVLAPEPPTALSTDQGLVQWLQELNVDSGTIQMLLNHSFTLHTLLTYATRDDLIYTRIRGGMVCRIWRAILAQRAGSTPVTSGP
Method in brief: as §1

MAP3K15 = MAP3K15 (Homo sapiens (Human), UniProt Q6ZN16); conditions: H929 live cell
Method in brief: as §2

TAK1 = TAK1 (Homo sapiens (Human), UniProt O43318); conditions: H929 live cell
Method in brief: as §1

PAK2 = PAK2 (Homo sapiens (Human), UniProt Q13177); conditions: H929 live cell
Method in brief: as §2

PYK2 = PYK2 (Homo sapiens (Human), UniProt Q14289); conditions: H929 live cell
Method in brief: as §2

[2] = range class, read-out: % inhibition

MELK, sequence (Q14680 whole entry): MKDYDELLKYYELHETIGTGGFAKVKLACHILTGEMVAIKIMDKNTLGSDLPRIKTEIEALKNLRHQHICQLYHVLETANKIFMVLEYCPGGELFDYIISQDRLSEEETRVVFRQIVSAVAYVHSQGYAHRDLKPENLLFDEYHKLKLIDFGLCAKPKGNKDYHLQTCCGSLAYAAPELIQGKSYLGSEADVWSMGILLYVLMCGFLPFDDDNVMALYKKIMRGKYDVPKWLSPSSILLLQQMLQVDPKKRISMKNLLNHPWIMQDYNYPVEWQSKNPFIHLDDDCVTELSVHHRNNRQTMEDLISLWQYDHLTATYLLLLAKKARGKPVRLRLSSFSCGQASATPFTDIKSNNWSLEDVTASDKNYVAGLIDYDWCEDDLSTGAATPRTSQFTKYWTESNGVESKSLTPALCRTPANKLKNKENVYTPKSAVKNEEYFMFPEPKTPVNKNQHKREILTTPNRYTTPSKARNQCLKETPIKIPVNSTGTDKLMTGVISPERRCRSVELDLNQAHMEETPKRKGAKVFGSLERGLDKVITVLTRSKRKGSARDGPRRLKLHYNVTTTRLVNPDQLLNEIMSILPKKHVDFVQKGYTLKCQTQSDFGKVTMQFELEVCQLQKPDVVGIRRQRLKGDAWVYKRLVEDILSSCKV

SMILES: COc1cc(NS(=O)(=O)C2CC2)ccc1-c1cnc(N)c(-c2ccc3c(c2)CCNC3=O)c1 [Compound I-50, N-(4-(6-amino-5-(1-oxo-1,2,3,4-tetrahydroisoquinolin-6-yl)pyridin-3-yl)-3-methoxyphenyl) cyclopropanesulfonamide]
- inhibition at 10 µM (MELK; [2]): 35 to 40%
- inhibition at 10 µM (MELK; read-out: inhibition (10 μM)): 45.9%
- inhibition at 10 µM (GAK; [2]): 50 to 75%
- inhibition at 10 µM (GAK; read-out: inhibition (10 μM)): 51.1%
- % inhibition (MER, TYRO3): 0.0%
- inhibition (10 μM) (MER, TYRO3): −2.0%
- inhibition at 10 µM (GPRK6; [2]): 0%
- inhibition at 10 µM (GPRK6; read-out: inhibition (10 μM)): -40.5%
- inhibition at 10 µM (DNAPK): 0%
- % inhibition (PCTAIRE1, PCTAIRE3): 0.0%
- inhibition (10 μM) (PCTAIRE1, PCTAIRE3): −3.5%
- % inhibition (PCTAIRE2, PCTAIRE3): 0.0%
- inhibition (10 μM) (PCTAIRE2, PCTAIRE3): −8.9%
- inhibition at 10 µM (PIP4K2B; [2]): 0%
- inhibition at 10 µM (PIP4K2B; read-out: inhibition (10 μM)): -31.5%
- inhibition at 10 µM (ZC3/MINK; [2]): 50 to 75%
- inhibition at 10 µM (ZC3/MINK; read-out: inhibition (10 μM)): 57.6%
- inhibition at 10 µM (Erk5; [2]): 0%
- inhibition at 10 µM (Erk5; read-out: inhibition (10 μM)): -2.8%
- inhibition at 10 µM (MLK4; [2]): 0%
- inhibition at 10 µM (MLK4; read-out: inhibition (10 μM)): 30.2%
- inhibition at 10 µM (CLK3; [2]): 0%
- inhibition at 10 µM (CLK3; read-out: inhibition (10 μM)): 1.5%
- % inhibition [1]: 75-90%
- inhibition (10 μM) [1]: 84.0%
- inhibition at 10 µM (CaMK4; [2]): 0%
- inhibition at 10 µM (CaMK4; read-out: inhibition (10 μM)): -17.9%
- inhibition at 10 µM (MAP3K6; [2]): 0%
- inhibition at 10 µM (MAP3K6; read-out: inhibition (10 μM)): -5.4%
- inhibition at 10 µM (MAP3K15; [2]): 35 to 40%
- inhibition at 10 µM (MAP3K15; read-out: inhibition (10 μM)): 46.7%
- inhibition at 10 µM (TAK1; [2]): 35 to 40%
- inhibition at 10 µM (TAK1; read-out: inhibition (10 μM)): 39.1%
- inhibition at 10 µM (PAK2; [2]): 0%
- inhibition at 10 µM (PAK2; read-out: inhibition (10 μM)): 20.2%
- inhibition at 10 µM (PYK2; [2]): 0%
- inhibition at 10 µM (PYK2; read-out: inhibition (10 μM)): 31.5%

SMILES: Nc1ncc(-c2ccc(NS(=O)(=O)C3CC3)cc2F)cc1-c1ccc2c(c1)CCNC2=O [Compound I-51, N-(4-(6-amino-5-(1-oxo-1,2,3,4-tetrahydroisoquinolin-6-yl)pyridin-3-yl)-3-fluorophenyl) cyclopropanesulfonamide]
- inhibition at 10 µM (MELK; [2]): 35 to 40%
- inhibition at 10 µM (MELK; read-out: inhibition (10 μM)): 49.5%
- inhibition at 10 µM (GAK; [2]): 50 to 75%
- inhibition at 10 µM (GAK; read-out: inhibition (10 μM)): 50.4%
- % inhibition (MER, TYRO3): 0.0%
- inhibition (10 μM) (MER, TYRO3): −11.0%
- inhibition at 10 µM (GPRK6; [2]): 0%
- inhibition at 10 µM (GPRK6; read-out: inhibition (10 μM)): 4.7%
- % inhibition (PCTAIRE1, PCTAIRE3): 0.0%
- inhibition (10 μM) (PCTAIRE1, PCTAIRE3): 29.4%
- % inhibition (PCTAIRE2, PCTAIRE3): 0.0%
- inhibition (10 μM) (PCTAIRE2, PCTAIRE3): 5.1%
- inhibition at 10 µM (PIP4K2B; [2]): 0%
- inhibition at 10 µM (PIP4K2B; read-out: inhibition (10 μM)): -47.1%
- inhibition at 10 µM (ZC3/MINK; [2]): 50 to 75%
- inhibition at 10 µM (ZC3/MINK; read-out: inhibition (10 μM)): 63.4%
- inhibition at 10 µM (Erk5; [2]): 0%
- inhibition at 10 µM (Erk5; read-out: inhibition (10 μM)): -13.2%
- inhibition at 10 µM (MLK4; [2]): 0%
- inhibition at 10 µM (MLK4; read-out: inhibition (10 μM)): 14.2%
- inhibition at 10 µM (CLK3; [2]): 0%
- inhibition at 10 µM (CLK3; read-out: inhibition (10 μM)): 23.3%
- % inhibition [1]: 75-90%
- inhibition (10 μM) [1]: 76.2%
- inhibition at 10 µM (CaMK4; [2]): 0%
- inhibition at 10 µM (CaMK4; read-out: inhibition (10 μM)): -61.2%
- inhibition at 10 µM (MAP3K6; [2]): 0%
- inhibition at 10 µM (MAP3K6; read-out: inhibition (10 μM)): 24.4%
- inhibition at 10 µM (MAP3K15; [2]): 35 to 40%
- inhibition at 10 µM (MAP3K15; read-out: inhibition (10 μM)): 36.4%
- inhibition at 10 µM (TAK1; [2]): 0%
- inhibition at 10 µM (TAK1; read-out: inhibition (10 μM)): 30%
- inhibition at 10 µM (PAK2; [2]): 0%
- inhibition at 10 µM (PAK2; read-out: inhibition (10 μM)): -14%
- inhibition at 10 µM (PYK2; [2]): 0%
- inhibition at 10 µM (PYK2; read-out: inhibition (10 μM)): 30.1%

SMILES: Nc1ncc(-c2ccc(NS(=O)(=O)C3CC3)cc2OC2CCCCC2)cc1-c1ccc2c(c1)CCNC2=O [Compound I-65, N-(4-(6-amino-5-(1-oxo-1,2,3,4-tetrahydroisoquinolin-6-yl)pyridin-3-yl)-3-(cyclohexyloxy)phenyl) cyclopropanesulfonamide]
- inhibition at 10 µM (MELK; [2]): 50 to 75%
- inhibition at 10 µM (MELK; read-out: inhibition (10 μM)): 56.5%
- inhibition at 10 µM (GAK; [2]): 0%
- inhibition at 10 µM (GAK; read-out: inhibition (10 μM)): 7.7%
- % inhibition (MER, TYRO3): 0.0%
- inhibition (10 μM) (MER, TYRO3): 4.6%
- inhibition at 10 µM (GPRK6; [2]): 0%
- inhibition at 10 µM (GPRK6; read-out: inhibition (10 μM)): 23.1%
- % inhibition (PCTAIRE1, PCTAIRE3): 0.0%
- inhibition (10 μM) (PCTAIRE1, PCTAIRE3): 2.3%
- % inhibition (PCTAIRE2, PCTAIRE3): 0.0%
- inhibition (10 μM) (PCTAIRE2, PCTAIRE3): 20.3%
- inhibition at 10 µM (PIP4K2B; [2]): 0%
- inhibition at 10 µM (PIP4K2B; read-out: inhibition (10 μM)): -8.9%
- inhibition at 10 µM (ZC3/MINK; [2]): 50 to 75%
- inhibition at 10 µM (ZC3/MINK; read-out: inhibition (10 μM)): 66.6%
- inhibition at 10 µM (Erk5; [2]): 0%
- inhibition at 10 µM (Erk5; read-out: inhibition (10 μM)): -6.5%
- inhibition at 10 µM (MLK4; [2]): 50 to 75%
- inhibition at 10 µM (MLK4; read-out: inhibition (10 μM)): 56.9%
- inhibition at 10 µM (CLK3; [2]): 35 to 40%
- inhibition at 10 µM (CLK3; read-out: inhibition (10 μM)): 40%
- % inhibition [1]: >90%
- inhibition (10 μM) [1]: 91.0%
- inhibition at 10 µM (CaMK4; [2]): 0%
- inhibition at 10 µM (CaMK4; read-out: inhibition (10 μM)): -21%
- inhibition at 10 µM (MAP3K6; [2]): 0%
- inhibition at 10 µM (MAP3K6; read-out: inhibition (10 μM)): -7.2%
- inhibition at 10 µM (MAP3K15; [2]): 0%
- inhibition at 10 µM (MAP3K15; read-out: inhibition (10 μM)): 29.7%
- inhibition at 10 µM (TAK1; [2]): 35 to 40%
- inhibition at 10 µM (TAK1; read-out: inhibition (10 μM)): 35%
- inhibition at 10 µM (PAK2; [2]): 0%
- inhibition at 10 µM (PAK2; read-out: inhibition (10 μM)): 1.7%
- inhibition at 10 µM (PYK2; [2]): 35 to 40%
- inhibition at 10 µM (PYK2; read-out: inhibition (10 μM)): 38.7%
